Measurements reported in the NIST ThermoML archive (doi:10.1016/j.jct.2006.07.017).

Key:
[1] = 298.15 K; 101.33 kPa; Liquid
[2] = refractive index (Na D-line) (dimensionless); settings: 298.15 K; 101.33 kPa; Liquid; Standard Abbe refractometry
[3] = xn = mol fraction of the nth substance listed; settings: 101 kPa, Liquid

Cc1ccccc1C [1,2-dimethylbenzene]
Settings | mass density [kg/m3] | refractive index
[1] | 875.73 | –
[2] | – | 1.5057

Cc1cccc(C)c1 [1,3-dimethylbenzene]
Settings | mass density [kg/m3] | refractive index
[1] | 859.83 | –
[2] | – | 1.4973

Cc1ccc(C)cc1 [1,4-dimethylbenzene]
Settings | mass density [kg/m3] | refractive index
[1] | 856.58 | –
[2] | – | 1.4958

Cc1ccc(C)cc1 [1,4-dimethylbenzene] + CN(C)C=O
[3]
Settings | mass density [kg/m3]
293.15 K, x1 = 0.0562 | 941.87
293.15 K, x1 = 0.1211 | 934.47
293.15 K, x1 = 0.1885 | 927.18
293.15 K, x1 = 0.2532 | 920.51
293.15 K, x1 = 0.3225 | 913.72
293.15 K, x1 = 0.3865 | 907.74
293.15 K, x1 = 0.4525 | 901.85
293.15 K, x1 = 0.5121 | 896.75
293.15 K, x1 = 0.5853 | 890.75
293.15 K, x1 = 0.6441 | 886.12
293.15 K, x1 = 0.7154 | 880.72
293.15 K, x1 = 0.7664 | 876.98
293.15 K, x1 = 0.8353 | 872.08
293.15 K, x1 = 0.8901 | 868.29
293.15 K, x1 = 0.9577 | 863.74
303.15 K, x1 = 0.0625 | 931.96
303.15 K, x1 = 0.1321 | 924.04
303.15 K, x1 = 0.1912 | 917.66
303.15 K, x1 = 0.2684 | 909.75
303.15 K, x1 = 0.3325 | 903.53
303.15 K, x1 = 0.3965 | 897.61
303.15 K, x1 = 0.4584 | 892.15
303.15 K, x1 = 0.5214 | 886.82
303.15 K, x1 = 0.5853 | 881.64
303.15 K, x1 = 0.6485 | 876.73
303.15 K, x1 = 0.7112 | 872.04
303.15 K, x1 = 0.7866 | 866.61
303.15 K, x1 = 0.8415 | 862.79
303.15 K, x1 = 0.9054 | 858.48
303.15 K, x1 = 0.9658 | 854.51
313.15 K, x1 = 0.0455 | 924.59
313.15 K, x1 = 0.1112 | 916.97
313.15 K, x1 = 0.1862 | 908.77
313.15 K, x1 = 0.2562 | 901.56
313.15 K, x1 = 0.3215 | 895.19
313.15 K, x1 = 0.3952 | 888.37
313.15 K, x1 = 0.4514 | 883.43
313.15 K, x1 = 0.5111 | 878.4
313.15 K, x1 = 0.5841 | 872.52
313.15 K, x1 = 0.6451 | 867.83
313.15 K, x1 = 0.7124 | 862.86
313.15 K, x1 = 0.7854 | 857.69
313.15 K, x1 = 0.8451 | 853.61
313.15 K, x1 = 0.9011 | 849.9
313.15 K, x1 = 0.9655 | 845.75

CN(C)C=O [dimethylformamide]
Settings | mass density [kg/m3] | refractive index
[1] | 943.85 | –
[2] | – | 1.4307
